Data on 16 compounds can be found in patent US20260151403A1, “NEK7 DEGRADERS AND METHODS OF USE THEREOF” (Captor Therapeutics S.A., priority 2022, published 2026).

Structures are written as SMILES.

Experiment [1] addresses T1, [NEK7]-[compound of formula (I)]-[CRBN/DDB1] complex (Homo sapiens, UniProt Q8TDX7+Q96SW2). Put plainly: AlphaLISA dose response ternary complex formation assay. Conditions: 1 μM compound; normalized to maximum signal of Compound 2 (positive control) and DMSO background; read-out: Normalized AlphaLISA ternary complex average signal at 1 μM molecule. In kind it is binding. How it is done: The effect of the molecular glue compounds of the invention on the formation of a ternary complex composed of [NEK7]-[compound of formula (I)]-[CRBN/DDB1] was investigated with two methods: AlphaLISA dose response assay or HTRF ternary complex assay.
Two types of protein solution were prepared: • 200 nM biotinylated NEK7, 40 μg/ml AlphaScreen Streptavidin-coated Donor Beads in HBS (10 mM HEPES, 150 mM NaCL, pH 7.4) buffer with 0.1% Tween-20 and 1 mM DTT, • 200 nM 6×His-CRBN/Strep-DDB1, 40 μg/ml AlphaLISA Anti-6×His Acceptor beads in HBS buffer with 0.1% Tween-20 and 1 mM DTT.
The prepared solutions were incubated at room temperature for 30 min and then the solution containing the donor beads was mixed with the solution containing the acceptor beads.
The tested compounds were dispensed onto a white 384-well AlphaPlate 384 SW. DMSO was backfilled to all wells, resulting in a final DMSO content of 2%. Wells containing only DMSO served as background. Next, 10 μl of solution with donor and acceptor beads was added to the wells.
The plate was sealed with transparent film and shaken using a VibroTurbulator for 60 sec at room temperature, level 3. The plate was then spun down shortly (10 s, 1000 rcf, room temperature) and incubated at 25° C. for 30 min.
The read-out was performed with PerkinElmer Enspire Multimode Plate Reader (method for AlphaLISA 384-well low volume, Filterset: λexc=680 nm, λem=615 nm).
The results were analyzed as follows: • 1) an average of luminescence for background signal was calculated and used as a negative control; • 2) average of the maximum measured luminescence for Compound 2 was calculated and used as an internal positive control; • 3) raw luminescence values were normalized against positive and negative controls; • 4) Normalized responses to Compound 2 were determined.

The target of experiment [2] is T1, [NEK7]-[compound of formula (I)]-[CRBN/DDB1] complex. Briefly: HTRF ternary complex assay. In kind it is binding. The following applies: dose-response, 180 min at 25° C.; read-out: HTRF ternary complex Average pEC50 by molecule (converted). How it is done: The effect of the molecular glue compounds of the invention on the formation of a ternary complex composed of [NEK7]-[compound of formula (I)]-[CRBN/DDB1] was investigated.
Mix solution of proteins and reagents was prepared: • 24 nM NEK7, 52.8 nM 6×His-CRBN/Strep-DDB1, 3 nM of Streptavidin-Eu cryptate […] and 6.67 nM of Anti-6×his-d2 […] was prepared in PPI Europium detection buffer (Cisbio) with 1 mM DTT.
The tested compounds in dose-response were dispensed onto a white 384-well low volume plate (Greiner, 784075). DMSO was backfilled to all wells, resulting in a final DMSO content of 0.5%. Wells containing only DMSO served as background.
The plate was sealed with transparent film and shaken using a VibroTurbulator for 60 sec at level 3.
The plate was then spun down shortly (10 s, 1000 rcf) and incubated at 25° C. for 180 min.
The read-out was performed with plate reader (Pherastar, BMG Labtech) in time resolved fluorescence mode. Filterset: TR 337 665 620.
The results were analyzed as follows: • 1) an average of fluorescence for background signal was calculated and used as a negative control; • 2) raw fluorescence values for tested compounds were normalized against negative controls; • 3) saturation curve was fitted to specific binding with Hill slope model; • 4) EC50 and pEC50 values were determined.

Experiment [3] addresses NEK7-HiBiT protein (Homo sapiens, UniProt Q8TDX7). Put plainly: NEK7-HiBiT degradation assay (Nano-Glo HiBiT Lytic Assay) in HEK293 NEK7-HiBiT cells. In kind it is cell-based. Conditions: 24 h, conc. 0.1, 1 and 10 μM tested, concentration of the table values not stated, mean of 3 technical replicates. The protocol:
HEK293 NEK7-HiBiT cells were generated using CRISPR-Cas9 system. HEK293 cells were transformed with pSpCas9-BB-2A-Puro v2.0 plasmid carrying gRNA targeting the N-terminus of NEK7 and ssODN template containing the HiBiT tag sequence with flanking homology sequences. Neon Transfection System (Thermo Fisher Scientific) was used for electroporation. HEK293 NEK7-HiBiT cells were cultured with DMEM Glutamax (Gibco) supplemented with 10% heat inactivated FBS (Gibco). After transfection the culture medium was changed to DMEM Glutamax with 10% heat-inactivated FBS and 1% Penicillin-Streptomycin (Biowest) supplemented with Puromycin (2 μg/ml; Invivogen) for clonal selection. In order to isolate single cell clones for further validation and analysis, limiting dilution cloning in 96-well plates was performed. When the single clones reached confluency, HiBiT Lytic Assay (Promega) was performed in order to identify HiBiT positive clones. The clone selected for further studies was verified and validated using genotyping and HiBiT Blotting (Promega).
Selected clone of HEK293 NEK7-HiBiT cells was maintained in the DMEM-Glutamax medium supplemented with 10% of heat-inactivated FBS (Gibco) and 1% of Penicillin-Streptomycin Solution 100x (Biowest) at 37° C., 5% CO2 and subcultured every 2-3 days.
For Nano-Glo HiBiT Lytic Assay HEK293 NEK7-HiBiT cells were seeded at the density 2×10^3 cells in triplicates in the 40 μL of growth medium per single well on 384 well plate (Greiner Bio-One). Compounds or DMSO were added to treatment plates using Echo555 Liquid Handler and incubated at 37° C., 5% CO2 for 24 hours. After incubation 40 μL of Nano-Glo HiBiT Lytic Reagent (prepared according to the manufacturer protocol) were added to 40 μL of the cell culture medium present in each well. The plate content was briefly mixed (460 rpm) on an orbital shaker to ensure cell lysis. The plate was left at RT protected from light for another 10 min to stabilize the luminescent signal. The luminescence signal was measured using CLARIOstar Multimode Plate Reader. Focus and gain were adjusted to DMSO treated cells. The results were calculated as the NEK7-HiBiT % relative to the DMSO control of 3 technical replicates relative to the DMSO control.
HEK293 NEK7-HiBiT cells were treated with the compounds (conc. 0.1, 1 and 10 μM) or DMSO for 24 h. After incubation with compounds NEK7-HiBiT degradation was measured as a luminescence signal using CLARIOstar Multimode Plate reader.
Additionally, compounds reducing NEK7-HiBiT protein level by >=50% at 0.1 μM, were also identified.

T1 sequence (Q8TDX7 whole entry): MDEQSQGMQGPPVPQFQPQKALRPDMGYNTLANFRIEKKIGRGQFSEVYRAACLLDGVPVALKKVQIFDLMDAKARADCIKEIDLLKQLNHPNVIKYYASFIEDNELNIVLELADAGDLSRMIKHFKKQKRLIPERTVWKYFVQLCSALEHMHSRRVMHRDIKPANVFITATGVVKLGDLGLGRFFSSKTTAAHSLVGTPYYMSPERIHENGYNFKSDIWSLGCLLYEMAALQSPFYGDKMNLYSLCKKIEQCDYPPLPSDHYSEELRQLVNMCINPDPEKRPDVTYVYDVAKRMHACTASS
T1 sequence (Q96SW2 whole entry): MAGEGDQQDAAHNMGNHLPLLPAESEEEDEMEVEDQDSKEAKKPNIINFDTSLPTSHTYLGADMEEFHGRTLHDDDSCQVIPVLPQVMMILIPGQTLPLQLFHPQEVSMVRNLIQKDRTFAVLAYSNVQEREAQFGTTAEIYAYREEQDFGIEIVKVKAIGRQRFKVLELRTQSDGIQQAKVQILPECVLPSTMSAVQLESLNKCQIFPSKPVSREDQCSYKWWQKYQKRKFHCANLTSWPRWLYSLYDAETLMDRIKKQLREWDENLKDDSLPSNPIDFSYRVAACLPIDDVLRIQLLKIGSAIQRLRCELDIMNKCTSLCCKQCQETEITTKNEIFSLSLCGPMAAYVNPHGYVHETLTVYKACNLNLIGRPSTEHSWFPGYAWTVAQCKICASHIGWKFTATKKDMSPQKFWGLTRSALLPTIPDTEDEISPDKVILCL
T1 sequence (Q16531 whole entry partner): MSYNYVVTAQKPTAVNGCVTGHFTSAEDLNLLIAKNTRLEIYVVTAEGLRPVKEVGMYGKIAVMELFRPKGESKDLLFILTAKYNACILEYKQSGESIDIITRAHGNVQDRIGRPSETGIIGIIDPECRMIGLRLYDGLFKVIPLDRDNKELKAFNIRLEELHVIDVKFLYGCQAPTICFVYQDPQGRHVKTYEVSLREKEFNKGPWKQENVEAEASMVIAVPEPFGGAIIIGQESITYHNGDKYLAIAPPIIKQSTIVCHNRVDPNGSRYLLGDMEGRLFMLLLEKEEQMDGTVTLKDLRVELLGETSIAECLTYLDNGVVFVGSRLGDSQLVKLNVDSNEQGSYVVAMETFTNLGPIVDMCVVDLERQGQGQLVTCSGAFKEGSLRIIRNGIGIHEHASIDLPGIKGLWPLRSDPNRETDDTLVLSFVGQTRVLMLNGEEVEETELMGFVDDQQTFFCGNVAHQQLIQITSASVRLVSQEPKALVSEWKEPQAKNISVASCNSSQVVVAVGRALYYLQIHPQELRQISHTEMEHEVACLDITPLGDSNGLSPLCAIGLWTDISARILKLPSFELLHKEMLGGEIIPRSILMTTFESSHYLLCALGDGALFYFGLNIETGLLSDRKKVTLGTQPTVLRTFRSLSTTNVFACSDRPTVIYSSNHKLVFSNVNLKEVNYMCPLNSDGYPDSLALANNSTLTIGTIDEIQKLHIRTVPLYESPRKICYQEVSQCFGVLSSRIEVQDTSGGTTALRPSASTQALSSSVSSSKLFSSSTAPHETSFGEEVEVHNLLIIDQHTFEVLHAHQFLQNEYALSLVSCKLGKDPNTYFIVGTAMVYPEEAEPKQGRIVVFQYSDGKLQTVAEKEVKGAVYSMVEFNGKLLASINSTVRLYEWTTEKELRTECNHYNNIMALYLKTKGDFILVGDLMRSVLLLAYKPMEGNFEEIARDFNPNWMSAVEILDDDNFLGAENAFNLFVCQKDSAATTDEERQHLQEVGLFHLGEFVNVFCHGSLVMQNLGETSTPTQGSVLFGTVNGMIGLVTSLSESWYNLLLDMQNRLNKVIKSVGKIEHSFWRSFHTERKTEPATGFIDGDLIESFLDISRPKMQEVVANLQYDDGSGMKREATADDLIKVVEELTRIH
NEK7-HiBiT protein, sequence (Q8TDX7 whole entry): as the sequence (Q8TDX7 whole entry) above
NEK7-HiBiT protein, sequence (Q96SW2 whole entry, further chain): as the sequence (Q96SW2 whole entry) above
NEK7-HiBiT protein, sequence (Q16531 whole entry partner): as the sequence (Q16531 whole entry partner) above

Consider `CC1c2cc(-c3ccccn3)ccc2C(=O)N1C1CCC(=O)NC1=O` (stereo not drawn) [24(2), 3-(3-methyl-1-oxo-5-(pyridin-2-yl)isoindolin-2-yl)piperidine-2,6-dione], for which the activation at 1 µM in experiment [1] is more than 80%. For the same compound, the EC50 in experiment [2] is 0.1 to 0.316 µM. Further, in experiment [3], the “Levels of NEK7-HiBiT Protein (as a % of DMSO control)” value (shortened to “Levels … (as a % of DMSO control)”) was “A (Levels of NEK7-HiBiT Protein ≤ 25%)”.

Regarding `COc1ccc(-c2ccc3c(c2)CN(C2CCC(=O)NC2=O)C3=O)nc1` (stereo not drawn) [25(2), 3-(5-(5-methoxypyridin-2-yl)-1-oxoisoindolin-2-yl)piperidine-2,6-dione], the activation at 1 µM in experiment [1] is more than 80%. For the same compound, the EC50 in experiment [2] is 0.1 to 0.316 µM. The “Levels … (as a % of DMSO control)” value in experiment [3] is given as “A (Levels of NEK7-HiBiT Protein ≤ 25%)”.

Regarding `O=C1CCC(N2Cc3cc(-c4cc(C(F)(F)F)ccn4)ccc3C2=O)C(=O)N1` (stereo not drawn) [26(2), 3-(1-oxo-5-(4-(trifluoromethyl)pyridin-2-yl)isoindolin-2-yl)piperidine-2,6-dione], the activation at 1 µM in experiment [1] lay within 20 to 80%. Also, the EC50 in experiment [2] is 0.316 to 1 µM. The “Levels … (as a % of DMSO control)” value in experiment [3] was “C (Levels of NEK7-HiBiT Protein > 50% and <75%)”.

With `COc1ccnc(-c2ccc3c(c2)CN(C2CCC(=O)NC2=O)C3=O)c1` (stereo not drawn) [27(2), 3-(5-(4-methoxypyridin-2-yl)-1-oxoisoindolin-2-yl)piperidine-2,6-dione], in experiment [1], the activation at 1 µM lay within 20 to 80%. Further, the EC50 in experiment [2] is 0.316 to 1 µM. Moreover, the “Levels … (as a % of DMSO control)” value in experiment [3] is on record as “D (Levels of NEK7-HiBiT Protein ≥ 75%)”.

For the compound `O=C1CCC(N2C(=O)c3cccc4c(-c5ccccn5)ccc2c34)C(=O)N1` (stereo not drawn) [28(2), 3-(2-oxo-6-(pyridin-2-yl)benzo[cd]indol-1 (2H)-yl)piperidine-2,6-dione], in experiment [1], the activation at 1 µM is less than 10%. Besides, the EC50 in experiment [2] was more than 3.16 µM. In addition, the “Levels … (as a % of DMSO control)” value in experiment [3] is “C (Levels of NEK7-HiBiT Protein > 50% and <75%)”.

For `O=C1CCCC(N2Cc3cc(-c4ccccn4)ccc3C2=O)C(=O)N1` (stereo not drawn) [29(2), 3-(1-oxo-5-(pyridin-2-yl)isoindolin-2-yl)azepane-2,7-dione], in experiment [1], the activation at 1 µM was less than 10%. Further, in experiment [2], the EC50 is more than 3.16 µM. In experiment [3], the “Levels … (as a % of DMSO control)” value is given as “D (Levels of NEK7-HiBiT Protein ≥ 75%)”.

Regarding `O=C1CCC(N2Cc3cc(-c4ccccn4)sc3C2=O)C(=O)N1` (stereo not drawn) [30(2), 3-(6-oxo-2-(pyridin-2-yl)-4,6-dihydro-5H-thieno[2,3-c]pyrrol-5-yl)piperidine-2,6-dione], the activation at 1 µM in experiment [1] was less than 10%. Also, the EC50 in experiment [2] was more than 3.16 µM. The “Levels … (as a % of DMSO control)” value in experiment [3] is recorded as “D (Levels of NEK7-HiBiT Protein ≥ 75%)”.

`O=C1CCC(N2Cc3c(csc3-c3ccccn3)C2=O)C(=O)N1` (stereo not drawn) [31(2), 3-(4-oxo-1-(pyridin-2-yl)-4H-thieno[3,4-c]pyrrol-5 (6H)-yl)piperidine-2,6-dione]: the activation at 1 µM in experiment [1] is less than 10%. Also, the EC50 in experiment [2] was more than 3.16 µM. In addition, in experiment [3], the “Levels … (as a % of DMSO control)” value is “D (Levels of NEK7-HiBiT Protein ≥ 75%)”.

As for `O=C1CCC(N2C(=O)c3ccc(C4CCCCN4)cc3C2=O)C(=O)N1` (stereo not drawn) [Compound 1, 2-(2,6-dioxopiperidin-3-yl)-5-(piperidin-2-yl)isoindoline-1,3-dione], the activation at 1 µM in experiment [1] was 20 to 80%. In experiment [2], the EC50 was 1 to 3.16 µM. For the same compound, the “Levels … (as a % of DMSO control)” value in experiment [3] is recorded as “A (Levels of NEK7-HiBiT Protein ≤ 25%)”.

`O=C1CCC(N2Cc3cc(C4CCCN4)ccc3C2=O)C(=O)N1` (stereo not drawn) [Compound 6, 3-(1-oxo-5-(pyrrolidin-2-yl)isoindolin-2-yl)piperidine-2,6-dione]: the activation at 1 µM in experiment [1] lay within 20 to 80%. Also, the EC50 in experiment [2] was 0.316 to 1 µM. In experiment [3], the “Levels … (as a % of DMSO control)” value was “A (Levels of NEK7-HiBiT Protein ≤ 25%)”.

Take `O=C1CCC(N2Cc3cc([C@H]4CCCCN4)ccc3C2=O)C(=O)N1` (stereo partly drawn) [Compound 9, 3-(1-oxo-5-((R)-piperidin-2-yl)isoindolin-2-yl)piperidine-2,6-dione]: in experiment [1], the activation at 1 µM is more than 80%. Moreover, the EC50 in experiment [2] is 0.316 to 1 µM. Also, the “Levels … (as a % of DMSO control)” value in experiment [3] is “A (Levels of NEK7-HiBiT Protein ≤ 25%)”.

In the case of `O=C1CCC(N2Cc3cc([C@@H]4CCCCN4)ccc3C2=O)C(=O)N1` (stereo partly drawn) [Compound 10, 3-(1-oxo-5-((S)-piperidin-2-yl)isoindolin-2-yl)piperidine-2,6-dione], the activation at 1 µM in experiment [1] lay within 10 to 20%. Besides, the EC50 in experiment [2] is 0.316 to 1 µM. For the same compound, the “Levels … (as a % of DMSO control)” value in experiment [3] was “C (Levels of NEK7-HiBiT Protein > 50% and <75%)”.

For the compound `Cc1cc2c(cc1C1CCCCN1)CN(C1CCC(=O)NC1=O)C2=O` (stereo not drawn) [Compound 20, 3-(6-methyl-1-oxo-5-(piperidin-2-yl)isoindolin-2-yl)piperidine-2,6-dione], in experiment [1], the activation at 1 µM is less than 10%. For the same compound, in experiment [2], the EC50 is more than 3.16 µM. For the same compound, the “Levels … (as a % of DMSO control)” value in experiment [3] is given as “D (Levels of NEK7-HiBiT Protein ≥ 75%)”.

Take `Cc1cc(C2CCCCN2)cc2c1C(=O)N(C1CCC(=O)NC1=O)C2` (stereo not drawn) [Compound 21, 3-(7-methyl-1-oxo-5-(piperidin-2-yl)isoindolin-2-yl)piperidine-2,6-dione]: the activation at 1 µM in experiment [1] was less than 10%. For the same compound, in experiment [2], the EC50 was more than 3.16 µM. Further, the “Levels … (as a % of DMSO control)” value in experiment [3] is listed as “D (Levels of NEK7-HiBiT Protein ≥ 75%)”.

`O=C1CCC(N2Cc3c(ccc(C4CCCCN4)c3F)C2=O)C(=O)N1` (stereo not drawn) [Compound 22, 3-(4-fluoro-1-oxo-5-(piperidin-2-yl)isoindolin-2-yl)piperidine-2,6-dione]: the activation at 1 µM in experiment [1] is less than 10%. In experiment [2], the EC50 was more than 3.16 µM. For the same compound, in experiment [3], the “Levels … (as a % of DMSO control)” value was “A (Levels of NEK7-HiBiT Protein ≤ 25%)”.

As for `O=C1CCC(N2Cc3cc(C4CCCCN4)cc(F)c3C2=O)C(=O)N1` (stereo not drawn) [Compound 24, 3-(7-fluoro-1-oxo-5-(piperidin-2-yl)isoindolin-2-yl)piperidine-2,6-dione], the activation at 1 µM in experiment [1] was less than 10%. The EC50 in experiment [2] is more than 3.16 µM. The “Levels … (as a % of DMSO control)” value in experiment [3] is “D (Levels of NEK7-HiBiT Protein ≥ 75%)”.
